Experimental findings from ChEMBL document CHEMBL1201862, “PubChem BioAssay data set” (2004) are described below.

Molecules are shown by their SMILES.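 Growth conditions: 96-well plates. Treatment: test compound, 48 hours, 5 concentrations. Analysis: linear interpolation between bracketing concentrations; unreached endpoints set to highest concentration. GI50 = concentration required for 50% inhibition of growth.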 Calls of active or inactive are those of the source. Rule as the data show it: active = GI50 up to about 1.1 µM and inactive = higher.

Some test systems named below: NCI-H226; NCI-H460; KM12; Malme-3M; SF-539; K562; LOX IMVI; SK-MEL-28; HCT-15; CCRF-CEM; MCF7; A549; HOP-62; 786-0; RPMI-8226; SW-620; SK-OV-3; EKVX; SN12C; MDA-MB-231.
Holding throughout (assay): NCI anticancer screen, dose series, 48 h

On to `Cc1ccc2c(ccc3c[n+]4ccccc4c(C)c32)c1.[O-][Cl+3]([O-])([O-])[O-]`, for which the GI50 was 1.28 µM (inactive) in the assay with NCI-H226; > 100 µM (inactive) in the assay with NCI-H460; 0.39 µM (active) in the assay on KM12; 1.32 µM (inactive) in the assay on Malme-3M; 2.3 µM (inactive) in the assay with SF-539; 4.16 µM (inactive) in the assay on K562. For the same molecule, the GI50 is 11.7 µM (inactive) with LOX IMVI; 3.17 µM (inactive) in the assay on SK-MEL-28; above 100 µM with HCT-15; 6.64 µM (inactive) with CCRF-CEM; 2.89 µM (inactive) in the assay with MCF7; 0.373 µM (active) with A549. The GI50 in the assay on HOP-62 is 2.44 µM (inactive); with 786-0, 2.51 µM (inactive); with RPMI-8226 it was 4.15 µM (inactive); in the assay on SW-620, 0.962 µM (active); with SK-OV-3, 10.3 µM (inactive); in the assay with EKVX it was 62.4 µM (inactive). For the same molecule, the GI50 in the assay on SN12C was 0.402 µM (active); with MDA-MB-231, 6.61 µM (inactive).
On to `CN(CCCn1ccnc1[N+](=O)[O-])CCCn1ccnc1[N+](=O)[O-]`, for which the GI50 in the assay on NCI-H226, with NCI-H460, in the assay on KM12, in the assay with Malme-3M, in the assay with SF-539 and in the assay on K562 was > 100 µM (inactive) each time. In addition, the GI50 in the assay with LOX IMVI was > 100 µM (inactive); in the assay with SK-MEL-28 it was > 100 µM (inactive); in the assay with HCT-15, above 100 µM; in the assay with CCRF-CEM, 8.41 µM (inactive); with MCF7, > 100 µM (inactive); in the assay with A549 it was > 100 µM (inactive). For the same molecule, the GI50 in the assay on HOP-62, with 786-0, in the assay with RPMI-8226, with SW-620, with SK-OV-3 and in the assay on EKVX was > 100 µM (inactive) in each case. Besides, the GI50 in the assay on SN12C and in the assay with MDA-MB-231 was > 100 µM (inactive) each time.
As for `C/C(=C/CC[C@]1(CO)CC[C@]2(C)[C@H](CC[C@@H]3[C@@]4(C)CC[C@H](OC5OC(CO)C(O)C(O)C5OC5OC(CO)C(O)C(O)C5O)C(C)(C)[C@@H]4CC[C@]32C)[C@H]1O)CO` (stereo not given in full), the GI50 with NCI-H226, in the assay on NCI-H460, in the assay with KM12, in the assay on Malme-3M, with SF-539 and with K562 was > 100 µM (inactive) each time. For the same molecule, the GI50 is > 100 µM (inactive) with LOX IMVI; > 100 µM (inactive) in the assay with SK-MEL-28; above 100 µM in the assay on HCT-15; > 100 µM (inactive) in the assay with CCRF-CEM; > 100 µM (inactive) with MCF7; > 100 µM (inactive) in the assay on A549. Also, the GI50 with HOP-62, in the assay with 786-0, in the assay on RPMI-8226, with SW-620, in the assay with SK-OV-3 and with EKVX was > 100 µM (inactive) in each case. Besides, the GI50 in the assay with SN12C and in the assay on MDA-MB-231 was > 100 µM (inactive) each time.
